Experimental data from a melting point compilation (Tetko et al.; mined from patent text by program, amines drawn as free bases though some values may be those of a salt).

Row | melting point | Structure (SMILES)
1 | 158 to 160 °C | CCn1ncc2c(NCC3CCCCC3)c3cc(Br)ccc3nc21
2 | 126 to 128 °C | CCNC(=O)Oc1ccc2cc(N3CC(COC)OC3=O)ccc2c1 (stereo not given)
3 | 134 to 136 °C | O=C(NCc1ccc(F)c(F)c1)c1ccnc(N2CCN(CC3CC3)C2=O)c1
4 | 150 to 152 °C | CSC(Nc1cc(C(F)(F)F)cc(C(F)(F)F)c1)=C(C#N)S(=O)(=O)c1ccc(Cl)cc1
5 | 252 to 253 °C | COCCNc1nc(-n2ccnc2)nc2ccc(C(=O)OC)cc12
6 | 243 to 245 °C | c1ncn(Cc2ccc3c(c2)-c2[nH]nc(-c4ccsc4)c2C3)n1
7 | 206 to 207 °C | Nc1nc(-c2ccco2)c(C(=O)c2ccccn2)s1
8 | 307 to 308 °C | Nc1ccc(N2CCOCC2)c(C(=O)O)c1
9 | 183 to 184 °C | CCOCc1nc2c(N)nc3ccc(OCc4ccccc4)cc3c2n1CC(C)C
10 | 280 to 282 °C | Nc1cccc(Nc2ncnc3[nH]cc(C(=O)c4ccccc4)c23)c1
11 | 220 to 222 °C | O=C(NCCCCCCNC(=O)c1ccc(O)cc1)c1ccc(O)cc1
12 | 247 to 249 °C | Cc1ccc2nc(-c3ccc4oc(=O)n(C)c4c3)c(C)n2c1
13 | 210 to 211 °C | CN1CC2CC1CN2c1ccc(NC=C2C(=O)NC(=O)c3ccc(I)cc32)cc1 (stereo not given)
14 | 212 to 213 °C | CN1Cc2cccnc2N(c2ccc(F)cc2)C1=O
15 | 108 to 110 °C | O=C(CS(=O)c1ccccc1)Nc1c([N+](=O)[O-])cnn1-c1c(Cl)cc(C(F)(F)F)cc1Cl (stereo not given)
16 | 107 °C | O=C1CN(c2ccc(Cc3ccccc3)cc2)C(=S)N1Cc1ccccc1
17 | 104 to 105 °C | COc1cc2ncnc(N3CCN(C(=S)NCc4ccc(C(C)(C)C)cc4)CC3)c2cc1OC
18 | 116 to 118 °C | C[C@H](c1ccccc1CCn1cncn1)N(c1cc(F)ccc1F)S(=O)(=O)c1ccc(Cl)cc1
19 | 48 to 49 °C | CCOC(=O)C(Cc1ccc(C(F)(F)F)cc1)C(=O)c1ccc(F)c(F)c1 (stereo not given)
20 | 133 to 136 °C | O=C1CCC(CN2C(=O)C3(COc4cc5c(cc43)CCO5)c3ccccc32)N1 (stereo not given)
21 | 106 to 107 °C | Cc1c(C)n(CCF)c2c(OCc3ccccc3)nncc12
22 | 50 to 52 °C | COC(=O)CCCc1cc2cc(Cl)ccc2n1S(=O)(=O)c1ccc2c(c1)CN(C(C)=O)CC2
23 | 192 to 196 °C | CC(C)COc1cc(C(=O)O)cc(N)c1C(=O)c1ccccc1
24 | 132 to 133 °C | Cc1cc(-c2cc(COS(C)(=O)=O)c(=O)n(Cc3ccc(Cl)cc3)n2)ccc1F
25 | 160 to 161 °C | CN1CCN(C(=O)Nc2ccccc2NC(=O)c2cc(C(C)(C)C)c(O)c(C(C)(C)C)c2)CC1
26 | 102 °C | O=C(Nc1ccc2ccc(Oc3ccccc3)nc2n1)c1ccoc1
27 | 243 to 244 °C | O=C1N(Cc2ccc(O)cc2)c2ccccc2C12COc1cc3c(cc12)OCCO3 (stereo not given)
28 | 217 °C | NC(=O)c1cc2cc(F)c(F)cc2o1
29 | 300 °C | COC(=O)Nc1nc2cc(C(O)c3ccc(F)cc3)ccc2[nH]1 (stereo not given)
30 | 232 to 234 °C | CCCCNc1cc(C(=O)O)cc(S(N)(=O)=O)c1Sc1ccc(N)cc1

The next lines start with the compound.

Row | Structure (SMILES) | melting point
31 | NC(C(=O)N(N)c1ccc2ccccc2c1)c1ccccc1 (stereo not given) | 176 to 178 °C
32 | COc1ccc(-c2c3c(nn2-c2ccccc2)-c2cccc(N)c2C3=O)cc1 | 273 °C
33 | Cc1cccc(N(c2ccccc2)c2ccc(N(c3ccccc3)c3cccc(C)c3)cc2)c1 | 170 to 171 °C
34 | OC1Cc2ccccc2C1O (stereo not given) | 98 to 100 °C
35 | CCOC(=O)C1=C(C)NC(COCCN)=C(C(=O)OC)C1c1cccc(Cl)c1Cl (stereo not given) | 131 to 132 °C
36 | CCCC(=O)NCCC1CCc2cc(OC)ccc21 (single isomer, unassigned; (-)) | 79 to 80 °C
37 | [N-]=[N+]=C1CCc2ccccc2C1=O | 50 to 52 °C
38 | Cc1nncn1-c1ccc(Cl)cc1C(=O)c1ccccc1Cl | 148 °C
39 | COc1cccc(CC(=O)O)c1OCc1cc(OCc2ccc3ccccc3n2)n(C(C)C)n1 | 84 to 85 °C
40 | CCOC(CC(=O)Nc1cc(CCNC(=O)C(F)(F)F)ccc1OC)OCC | 79 to 80 °C
41 | Cc1nnc(C)n1-c1ccc(C#N)cc1 | > 230 °C
42 | CN1Cc2c(/C=C\Cl)ncn2-c2ccccc2C1=O | 197 to 199 °C
43 | CCOC(=O)c1cc(-c2ccc(OCc3cccnc3)cc2O[C@H](CCC(=O)O)c2ccccc2C)n[nH]1 | 108 to 110 °C
44 | CCn1cc(C2CCC3(CC2)OCCO3)c2cc(C#N)ccc21 | 124 to 126 °C
45 | CN(C)CC#CCNC(=O)C(O)(c1ccccc1)C1CCCCC1 (single isomer, unassigned; (-)) | 120 to 121 °C
46 | CCCN(CCC)Cc1csc(-c2ncn3c2CN(C)C(=O)c2c-3ccc(F)c2Cl)n1 | 123 °C
47 | CC#CC(C)(C)NC(=O)C(CC)Oc1cncc(Cl)c1 (stereo not given) | 87 to 89 °C
48 | Nc1ncnc2cccc(Oc3ccc(F)cc3)c12 | 188 to 190 °C
49 | N#Cc1ccc2c(c1)S(=O)c1ccccc1C=C2 (stereo not given) | 220 to 222 °C
50 | CCC1(CC)c2cc(-c3ccc4c(c3)C(CC)(CC)c3cc(N(c5ccccc5)c5ccccc5)ccc3-4)ccc2-c2ccc(-c3nc4ccccc4s3)cc21 | 217 to 218 °C

Row | Structure (SMILES) | melting point
51 | CC(C)OCCNC(=O)c1n[nH]cc1NC(=O)c1ccccn1 | 163 to 164 °C
52 | CC(Oc1ccc(Oc2ccc(C#N)cc2)cc1)C(=O)Nc1ccccc1 (stereo not given) | 133 to 134 °C
53 | CC(=O)OC1CC2C1N(C(C)=O)C(=O)N2C(C)=O (stereo not given) | 148 to 150 °C
54 | CCCCCCCCCCCCc1nnn(C(C)C(=O)Nc2c(OC)cc(OC)cc2OC)n1 (stereo not given) | 155 to 157 °C
55 | OC1CSC(Oc2cccc(-c3ccc(Cl)nc3)c2)C(O)C1O (stereo not given) | 189 °C
56 | Cc1cn2ccnc(Cl)c2n1 | 128 to 130 °C
57 | COCc1c(C(=O)OC(CO)CO)ncc2[nH]c3ccc(OCc4ccccc4)cc3c12 | 190 to 192 °C
58 | N#CC(c1ccccc1)c1nc(-c2ccncc2)cs1 (stereo not given) | 110 to 111 °C
59 | COc1cc2nc(Cl)nc(Nc3ccc4[nH]ncc4c3)c2cc1OC | 279 to 284 °C
60 | COC1=C(OC)C(=O)C2=C(CC(CCCCCCCCN3CCN(Cc4ccccc4)CC3)(c3ccccc3)C2)C1=O | 78 to 80 °C
61 | Fc1cc(F)c2[nH]c(-c3ccccc3)c(CCN3CCCCC3)c2c1 | 185 to 187 °C
62 | O=C1C(c2ccccc2)=C(c2ccccc2)C(=O)N1c1ccccc1 | 173 to 174 °C
63 | CCCCNC(=O)CCC(=O)O | 93.5 to 94.5 °C
64 | COC(=NC(=O)c1ccccc1)NC(=O)c1ccccc1 | 139 to 141 °C
65 | CCCCCCCCCCCCCCCC1CCCC(c2ccc(N)cc2)(c2ccc(N)cc2)C1 (stereo not given) | 107 °C
66 | COc1ccc(-c2ccnc3c(C(=O)c4cccs4)cnn23)cc1NC(=O)OC(C)C | 193 to 195 °C
67 | CCCCCC(C)N(Cc1ccc(C(C)(C)C)cc1)C(Nc1ccc(OC)cc1OC)=C1C(=O)COC1=O (stereo not given) | 115 to 117 °C
68 | CC1C(=O)Oc2c1cccc2S(=O)(=O)c1ccccc1Cl (stereo not given) | 94 to 96 °C
69 | CCCCN1C(=O)C2C(=O)N(Cc3cc(C)ccc3C)C(=O)C(C1=O)C2(C)C | 159 to 161 °C
70 | CCC(Oc1c(F)ccc(C)c1F)C1=NCCN1 (stereo not given) | 70.5 to 71 °C
